Laboratory results as given in patent publication US20260265329A1, “POLYPEPTIDE AND DERIVATIVE THEREOF, COMPOSITION, AND USE THEREOF” (HANGZHOU SCIWIND BIOSCIENCES CO., LTD., priority 2023, published 2026).
Starred links: 1 amine or outer side, 2 acyl side, 3 side chain; linkers in the order of their positions; H or OH if unused. Non-standard residues stand in square brackets, D forms with d. Residues, ends and D or L forms follow the SMILES beside them. *: point of attachment. C20 diacid = O=C(O)CCCCCCCCCCCCCCCCCCC(=O)*; γGlu = O=C(O)[C@H](CCC(=O)[*:2])N[*:1]; Hyp = O=C(O)[C@@H]1C[C@@H](O)CN1; NMeD = CN[C@@H](CC(=O)O)C(=O)O

Experiments:
[1] = Heat accelerated stability assay, 40° C., detection on 10 d and 20 d; type: physicochemical; conditions: 1 mg/mL, pH about 7.4, 40° C.
Procedure: The derivatives (1 mg/mL) were mixed with sodium dihydrogen phosphate (1.42 mg/mL) and dissolved in ultrapure water. After adjusting pH to about 7.4 with hydrochloric acid/sodium hydroxide, the solution was filtered into a sterilized vial in a clean bench using a 0.22 μm sterile filter. The vial was then capped and placed into the stability test chamber at 40° C. Detections were made on 10d and 20d, and during the assay changes in the characteristics and properties of the polypeptides were observed and recorded. The sample was then centrifuged for 3 min at 10000 rpm at 4° C., and the supernatant was transferred to a liquid phase sample vial for detecting the concentration and purity of the polypeptides using liquid phase chromatography described as below.
Flow rate: 1.0 mL/min; Autosampler temperature: 25° C.; Column temperature: 25° C.; Detection wavelength: 214 nm; Mobile phase A: 110 mM phosphate buffer (pH 5.8): ACN=90:10; Mobile phase B: ACN: IPA: H2O=85:5:10; and Gradient of elution listed in Table 6: […]

human amylin receptors = molecular target: T1, human amylin receptors (Homo sapiens, UniProt O60896+P30988); assay: Luciferase assay in stably transfected amylin receptor/CRE-luc CHO cell line; type: cell-based; conditions: for Relative activity: EC50 ratio of Cagrilintide to the compound, Cagrilintide 100%; for EC50: amylin receptor/CRE-luc CHO cells, 24 hours incubation, luminescence
T1 construct: host or cells: CHO-K1/Ga15/AMY3 cells, further stably transfected with a CRE-luciferase plasmid
T1 sequence (P30988 25-474): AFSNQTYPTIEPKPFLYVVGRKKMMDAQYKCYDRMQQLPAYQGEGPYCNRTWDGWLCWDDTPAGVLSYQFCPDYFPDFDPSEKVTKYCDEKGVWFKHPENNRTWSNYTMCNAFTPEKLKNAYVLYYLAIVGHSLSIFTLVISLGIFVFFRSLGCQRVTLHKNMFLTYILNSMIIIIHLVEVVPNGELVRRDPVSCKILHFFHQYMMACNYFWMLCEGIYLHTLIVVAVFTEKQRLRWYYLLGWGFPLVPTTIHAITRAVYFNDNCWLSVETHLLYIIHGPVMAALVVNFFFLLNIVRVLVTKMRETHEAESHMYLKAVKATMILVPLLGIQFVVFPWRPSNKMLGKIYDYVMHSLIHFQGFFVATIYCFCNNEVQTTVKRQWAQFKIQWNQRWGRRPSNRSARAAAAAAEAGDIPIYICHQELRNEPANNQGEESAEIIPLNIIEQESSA
T1 sequence (O60896 24-148 partner): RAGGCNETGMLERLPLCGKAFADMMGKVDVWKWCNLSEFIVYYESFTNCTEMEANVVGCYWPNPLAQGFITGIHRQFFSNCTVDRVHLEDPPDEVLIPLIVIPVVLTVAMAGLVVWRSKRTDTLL

| Reduction in purity, 10 d [1] [%] | Relative activity (human amylin receptors) [%] | EC50 (human amylin receptors) [pM] | Reduction in purity, 20 d ([1]; 20 d) [%] | Compound |
| --- | --- | --- | --- | --- |
| 6.54 | 129 | 70 |  | CC[C@H](C)[C@H](NC(=O)[C@@H]1CCCN1C(=O)[C@H](CCCCN)NC(=O)[C@H](CC(C)C)NC(=O)[C@H](CC(=O)O)N(C)C(=O)[C@H](CC(N)=O)NC(=O)[C@H](CO)NC(=O)[C@H](CO)NC(=O)[C@H](Cc1c[nH]cn1)NC(=O)[C@H](CCCNC(=N)N)NC(=O)[C@H](CC(C)C)NC(=O)[C@H](Cc1ccccc1)NC(=O)[C@H](CC(=O)O)NC(=O)[C@H](C)NC(=O)[C@H](CC(C)C)NC(=O)[C@H](CCCNC(=N)N)NC(=O)[C@H](CCC(N)=O)NC(=O)[C@@H](NC(=O)[C@H](C)NC(=O)[C@H](C)NC(=O)[C@@H](NC(=O)[C@H](CO)NC(=O)[C@H](CC(C)C)NC(=O)[C@H](CCC(N)=O)NC(=O)[C@H](CO)NC(=O)[C@H](C)NC(=O)CC[C@H](NC(=O)CCCCCCCCCCCCCCCCCCC(=O)O)C(=O)O)[C@@H](C)O)[C@@H](C)O)C(=O)N[C@@H](CC(C)C)C(=O)N1CCC[C@H]1C(=O)N1CCC[C@H]1C(=O)N[C@H](C(=O)N[C@@H](CC(N)=O)C(=O)N[C@H](C(=O)NCC(=O)N[C@@H](CO)C(=O)N[C@@H](CC(N)=O)C(=O)N[C@H](C(=O)N1C[C@H](O)C[C@H]1C(N)=O)[C@@H](C)O)C(C)C)[C@@H](C)O [M45] ({C20 diacid-γGlu}-ASQLSTAATQRLADFLRHSSN[NMeD]LKPILPPTNVGSNT[Hyp]-NH2) |
| 8.69 | 150 | 60 |  | CC[C@H](C)[C@H](NC(=O)[C@@H]1CCCN1C(=O)[C@H](CCCCN)NC(=O)[C@H](CC(C)C)NC(=O)[C@H](CC(N)=O)NC(=O)[C@H](CCC(N)=O)NC(=O)[C@H](CO)NC(=O)[C@H](CO)NC(=O)[C@H](Cc1c[nH]cn1)NC(=O)[C@H](CCCNC(=N)N)NC(=O)[C@H](CC(C)C)NC(=O)[C@H](Cc1ccccc1)NC(=O)[C@H](CC(=O)O)NC(=O)[C@H](C)NC(=O)[C@H](CC(C)C)NC(=O)[C@H](CCCNC(=N)N)NC(=O)[C@H](CCC(N)=O)NC(=O)[C@@H](NC(=O)[C@H](C)NC(=O)[C@H](C)NC(=O)[C@@H](NC(=O)[C@H](CO)NC(=O)[C@H](CC(C)C)NC(=O)[C@H](CCC(N)=O)NC(=O)[C@H](CO)NC(=O)[C@H](C)NC(=O)CC[C@H](NC(=O)CCCCCCCCCCCCCCCCCCC(=O)O)C(=O)O)[C@@H](C)O)[C@@H](C)O)C(=O)N[C@@H](CC(C)C)C(=O)N1CCC[C@H]1C(=O)N1CCC[C@H]1C(=O)N[C@H](C(=O)N[C@@H](CC(N)=O)C(=O)N[C@H](C(=O)NCC(=O)N[C@@H](CO)C(=O)N[C@@H](CC(N)=O)C(=O)N[C@H](C(=O)N1C[C@H](O)C[C@H]1C(N)=O)[C@@H](C)O)C(C)C)[C@@H](C)O [M46] ({C20 diacid-γGlu}-ASQLSTAATQRLADFLRHSSQNLKPILPPTNVGSNT[Hyp]-NH2) |
| 9.25 | 113 | 80 |  | CC[C@H](C)[C@H](NC(=O)[C@@H]1CCCN1C(=O)[C@H](CCCCN)NC(=O)[C@H](CC(C)C)NC(=O)[C@H](CC(N)=O)NC(=O)[C@H](CCC(=O)O)NC(=O)[C@H](CO)NC(=O)[C@H](CO)NC(=O)[C@H](Cc1c[nH]cn1)NC(=O)[C@H](CCCNC(=N)N)NC(=O)[C@H](CC(C)C)NC(=O)[C@H](Cc1ccccc1)NC(=O)[C@H](CC(=O)O)NC(=O)[C@H](C)NC(=O)[C@H](CC(C)C)NC(=O)[C@H](CCCNC(=N)N)NC(=O)[C@H](CCC(N)=O)NC(=O)[C@@H](NC(=O)[C@H](C)NC(=O)[C@H](C)NC(=O)[C@@H](NC(=O)[C@H](CO)NC(=O)[C@H](CC(C)C)NC(=O)[C@H](CCC(N)=O)NC(=O)[C@H](CO)NC(=O)[C@H](C)NC(=O)CC[C@H](NC(=O)CCCCCCCCCCCCCCCCCCC(=O)O)C(=O)O)[C@@H](C)O)[C@@H](C)O)C(=O)N[C@@H](CC(C)C)C(=O)N1CCC[C@H]1C(=O)N1CCC[C@H]1C(=O)N[C@H](C(=O)N[C@@H](CC(N)=O)C(=O)N[C@H](C(=O)NCC(=O)N[C@@H](CO)C(=O)N[C@@H](CC(N)=O)C(=O)N[C@H](C(=O)N1C[C@H](O)C[C@H]1C(N)=O)[C@@H](C)O)C(C)C)[C@@H](C)O [M47] ({C20 diacid-γGlu}-ASQLSTAATQRLADFLRHSSENLKPILPPTNVGSNT[Hyp]-NH2) |
| 8.61 | 180 | 50 |  | CC[C@H](C)[C@H](NC(=O)[C@@H]1CCCN1C(=O)[C@H](CCCCN)NC(=O)[C@H](CC(C)C)NC(=O)[C@H](CC(N)=O)NC(=O)[C@H](CO)NC(=O)[C@H](CO)NC(=O)[C@H](CO)NC(=O)[C@H](Cc1c[nH]cn1)NC(=O)[C@H](CCCNC(=N)N)NC(=O)[C@H](CC(C)C)NC(=O)[C@H](Cc1ccccc1)NC(=O)[C@H](CC(=O)O)NC(=O)[C@H](C)NC(=O)[C@H](CC(C)C)NC(=O)[C@H](CCCNC(=N)N)NC(=O)[C@H](CCC(N)=O)NC(=O)[C@@H](NC(=O)[C@H](C)NC(=O)[C@H](C)NC(=O)[C@@H](NC(=O)[C@H](CO)NC(=O)[C@H](CC(C)C)NC(=O)[C@H](CCC(N)=O)NC(=O)[C@H](CO)NC(=O)[C@H](C)NC(=O)CC[C@H](NC(=O)CCCCCCCCCCCCCCCCCCC(=O)O)C(=O)O)[C@@H](C)O)[C@@H](C)O)C(=O)N[C@@H](CC(C)C)C(=O)N1CCC[C@H]1C(=O)N1CCC[C@H]1C(=O)N[C@H](C(=O)N[C@@H](CC(N)=O)C(=O)N[C@H](C(=O)NCC(=O)N[C@@H](CO)C(=O)N[C@@H](CC(N)=O)C(=O)N[C@H](C(=O)N1C[C@H](O)C[C@H]1C(N)=O)[C@@H](C)O)C(C)C)[C@@H](C)O [M48] ({C20 diacid-γGlu}-ASQLSTAATQRLADFLRHSSSNLKPILPPTNVGSNT[Hyp]-NH2) |
| 8.5 | 163 | 80 |  | CC[C@H](C)[C@H](NC(=O)[C@@H]1CCCN1C(=O)[C@H](CCCCN)NC(=O)[C@H](CC(C)C)NC(=O)[C@H](CC(N)=O)NC(=O)[C@@H](NC(=O)[C@H](CO)NC(=O)[C@H](CO)NC(=O)[C@H](Cc1c[nH]cn1)NC(=O)[C@H](CCCNC(=N)N)NC(=O)[C@H](CC(C)C)NC(=O)[C@H](Cc1ccccc1)NC(=O)[C@H](CC(=O)O)NC(=O)[C@H](C)NC(=O)[C@H](CC(C)C)NC(=O)[C@H](CCCNC(=N)N)NC(=O)[C@H](CCC(N)=O)NC(=O)[C@@H](NC(=O)[C@H](C)NC(=O)[C@H](C)NC(=O)[C@@H](NC(=O)[C@H](CO)NC(=O)[C@H](CC(C)C)NC(=O)[C@H](CCC(N)=O)NC(=O)[C@H](CO)NC(=O)[C@H](C)NC(=O)CC[C@H](NC(=O)CCCCCCCCCCCCCCCCCCC(=O)O)C(=O)O)[C@@H](C)O)[C@@H](C)O)[C@@H](C)O)C(=O)N[C@@H](CC(C)C)C(=O)N1CCC[C@H]1C(=O)N1CCC[C@H]1C(=O)N[C@H](C(=O)N[C@@H](CC(N)=O)C(=O)N[C@H](C(=O)NCC(=O)N[C@@H](CO)C(=O)N[C@@H](CC(N)=O)C(=O)N[C@H](C(=O)N1C[C@H](O)C[C@H]1C(N)=O)[C@@H](C)O)C(C)C)[C@@H](C)O [M49] ({C20 diacid-γGlu}-ASQLSTAATQRLADFLRHSSTNLKPILPPTNVGSNT[Hyp]-NH2) |
| 7.76 | 186 | 70 | 14.46 | CC[C@H](C)[C@H](NC(=O)[C@@H]1CCCN1C(=O)[C@H](CCCCN)NC(=O)[C@H](CC(C)C)NC(=O)[C@H](CC(N)=O)NC(=O)[C@H](C)NC(=O)[C@H](CO)NC(=O)[C@H](CO)NC(=O)[C@H](Cc1c[nH]cn1)NC(=O)[C@H](CCCNC(=N)N)NC(=O)[C@H](CC(C)C)NC(=O)[C@H](Cc1ccccc1)NC(=O)[C@H](CC(=O)O)NC(=O)[C@H](C)NC(=O)[C@H](CC(C)C)NC(=O)[C@H](CCCNC(=N)N)NC(=O)[C@H](CCC(N)=O)NC(=O)[C@@H](NC(=O)[C@H](C)NC(=O)[C@H](C)NC(=O)[C@@H](NC(=O)[C@H](CO)NC(=O)[C@H](CC(C)C)NC(=O)[C@H](CCC(N)=O)NC(=O)[C@H](CO)NC(=O)[C@H](C)NC(=O)CC[C@H](NC(=O)CCCCCCCCCCCCCCCCCCC(=O)O)C(=O)O)[C@@H](C)O)[C@@H](C)O)C(=O)N[C@@H](CC(C)C)C(=O)N1CCC[C@H]1C(=O)N1CCC[C@H]1C(=O)N[C@H](C(=O)N[C@@H](CC(N)=O)C(=O)N[C@H](C(=O)NCC(=O)N[C@@H](CO)C(=O)N[C@@H](CC(N)=O)C(=O)N[C@H](C(=O)N1C[C@H](O)C[C@H]1C(N)=O)[C@@H](C)O)C(C)C)[C@@H](C)O [M50] ({C20 diacid-γGlu}-ASQLSTAATQRLADFLRHSSANLKPILPPTNVGSNT[Hyp]-NH2) |
